Results from PubChem BioAssay (NCI).
Where “and” joins values, the source holds several entries; their conditions need not be identical. Identical values can stand only once.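 1) Cells in 96-well plates. 2) Compound, 48 h, 5 concentrations. 3) Linear interpolation between surrounding doses. 4) Unreached endpoint = highest concentration. Abbreviation: GI50, concentration required for 50% inhibition of growth. TGI marks complete inhibition of growth.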

Test system: MDA-MB-468 breast
Assay: growth of human tumour cells (NCI), 48 h

Structure (SMILES)	GI50	TGI
CC(=O)c1cc2c(c(O)c1C)C(=O)C(=O)c1c(O)cccc1-2	0.198 µM	0.495 µM
CC(=O)OC[C@]1(C)C=C2C(=O)[C@](C)(O)C3(CC3)C(C)=C2[C@H]1OC(=O)N(C)CCN(C)C(=O)OC(C)(C)C	0.519 µM	1.2 µM
C[C@@H](O)[C@H]1C(=O)N2C(C(=O)O)=C(SCCN=CN)C[C@H]12	1.1 µM	2.73 µM
COc1ccc(/C=N/C2=C(C#N)C(c3ccccc3)c3c(ccc4ccccc34)O2)cc1 (stereo unspecified)	1.08 µM	20.5 µM
CN(C)c1ccc2nc3ccc(N)cc3[n+](-c3ccccc3)c2c1	0.179 µM and 1.74 µM	1.54 µM and 7.28 µM
CCCCCCCCCCCC[n+]1c(C)cc(N)c2ccccc21	0.206 µM	0.76 µM
Cc1ccc(-c2cc(C(=O)N3N=C(c4ccc(N)cc4)CC3c3ccc(Cl)cc3)c3ccccc3n2)cc1 (stereo unspecified)	4.91 µM	> 100 µM
Nc1nc(N)c2cc(CNc3ccc(C(=O)NC(CC(=O)O)C(=O)O)cc3)ccc2n1 (stereo unspecified)	0.941 µM	–
CCCCCCNC(=O)Nc1ccc2cc3ccc(NC(=O)NCCCCCC)cc3nc2c1	1.62 µM	3.73 µM
Cc1cc(Nc2cccc(F)c2)nc(NCc2ccccc2)n1	2.17 µM	7.75 µM
CO[C@H](C(=O)[C@@H](O)[C@@H](C)O)[C@@H]1Cc2cc3cc(O[C@H]4C[C@@H](O[C@H]5C[C@@H](O)[C@H](O)C(C)O5)[C@H](O)C(C)(O)O4)cc(O)c3c(O)c2C(=O)[C@H]1O[C@H]1C[C@@H](O[C@H]2C[C@@H](O[C@H]3C[C@@H](OC)[C@H](O)C(C)O3)[C@@H](O)C(C)O2)[C@H](O)C(C)O1 (stereo partly specified)	2.93 µM	> 16.8 µM
Clc1ccc(/C=C2\CCCC3C2=Nc2ccccc2NC3c2ccc(Cl)cc2)cc1 (stereo unspecified)	1.89 µM	4.6 µM
COC(=O)C(N)CSC(c1ccccc1)(c1ccccc1)c1ccccc1 (stereo unspecified)	0.336 µM	2.74 µM
O=C1OCC2=C1C(c1cccc(Cl)c1)c1cc3c(cc1N2CCO)OCO3 (stereo unspecified)	0.246 µM	–
O=C(O)CCCn1c(SCc2c(Cl)cccc2Cl)nc2ccsc2c1=O	0.24 µM	> 100 µM
CC(Nc1c(C#N)cnc2ccc(-c3cnc(N)nc3)cc12)c1ccccc1 (stereo unspecified)	0.396 µM	3.34 µM
CC(C)[C@]12O[C@H]1[C@@H]1O[C@]13[C@]1(O[C@H]1C[C@H]1C4=C(CC[C@@]13C)C(=O)OC4)[C@@H]2OC(=O)CN(C)C	0.0183 µM	0.0524 µM
COc1ccc(/C=C/C(=O)c2cccc(B(O)O)c2)cc1O	2.86 µM	21 µM
Cc1c2cnccc2c(C)c2c1c1cc(CO)ccc1n2C	0.151 µM	0.42 µM
O=C(C[Si](CC(=O)c1cccc(C(F)(F)F)c1)CC(=O)c1cccc(C(F)(F)F)c1)c1cccc(C(F)(F)F)c1	2.24 µM	6.71 µM

Structure (SMILES)	GI50	TGI
COc1ccc2nc3cc(Cl)ccc3c(NCCCCCN3CCCCC3)c2c1	1.21 µM	2.58 µM
Cn1cc(C2=C(c3cn(CCSC(=N)N)c4ccccc34)C(=O)NC2=O)c2ccccc21	3.19 µM	7.12 µM
O[N+]1=CC=CCC1=S.On1ccccc1=S.[Zn]	0.584 µM	1.6 µM
COc1ccc(S(=O)(=O)Nc2cc(/C=C\c3cc(OC)c(OC)c(OC)c3)cc(OC)c2OC)cc1	0.042 µM	> 100 µM
FC(F)(F)c1cccc(Nc2nc3ccccc3nc2Nc2cccc(C(F)(F)F)c2)c1	1.53 µM	3.56 µM
COc1cccc(/C=N/Nc2ncnc3c2cnn3-c2cccc(OC)c2)c1	> 25 µM	> 25 µM
COC(=O)[C@@H](C[C@H](Cc1ccccc1)NC(=O)c1csc([C@@H](C[C@H](C(C)C)N(C)C(=O)[C@@H](NC(=O)[C@H]2CCCCN2C)C(C)C)OC(C)=O)n1)NC(=O)OCc1ccccc1	< 0.000833 µM	< 0.000833 µM
Cc1c(C(N)=O)sc2c1c(=O)n(Cc1ccccc1)c1nnc(SCC(=O)Nc3ccc(Cl)cc3)n21	2.64 µM	6.88 µM
Cn1cc(C2=C(c3cn(CCCO)c4ccccc34)C(=O)NC2=O)c2ccccc21	2.25 µM	18.4 µM
CN1CCN(c2ccc3nc(-c4c5cccccc-5[nH]c4=O)[nH]c3c2)CC1	15.4 µM	34.2 µM
Cc1nc2cc(-n3c(-c4ccc(F)cc4)nc4ccccc4c3=O)ccc2n1Cc1ccccc1	2 µM	4.95 µM
O=C(N/N=C\c1c(O)ccc2ccccc12)C1CC1	3.16 µM	8.68 µM
O=C1c2ccccc2C(=O)c2c(N=Nc3[nH]c(=S)[nH]c3O)cccc21	0.44 µM	9.34 µM
NC(=O)c1cccc(N2Cc3ccccc3OC3=C2C(=O)c2c(O)ccc(O)c2C3=O)c1	0.195 µM	0.425 µM
O=C(Nc1cccc(-c2cccc(F)c2)c1)C1CCN(Cc2cccc3cccnc23)CC1	1.76 µM	3.46 µM
CCN(CC)c1ccc(/C=C2\SC(=O)C(Nc3nnc(-c4cccnc4SCc4ccccc4)o3)C2=O)cc1 (stereo unspecified)	3.23 µM	11.8 µM
C1CN1c1nc(N2CC2)nc(N2CC2)n1	4.83 µM	19.2 µM
CN([O-])c1nc(N(C)[O-])nc(N2CCOCC2)n1.CN([O-])c1nc(N(C)[OH2+])nc(N2CCOCC2)n1.[Fe+3]	45.4 µM	> 100 µM
COc1cccc2c1-c1ccccc1C2=O	0.346 µM	21.3 µM
